Data published in PubChem BioAssay (NCI).
“And” between values parts separate entries of the source, which are not always exact repeats. Equal values may be shown once.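 1) Cells in 96-well plates. 2) Compound, 48 h, 5 concentrations. 3) Linear interpolation between surrounding doses. 4) Unreached endpoint = highest concentration. GI50 = concentration required for 50% inhibition of growth. Definition used: TGI = concentration required for complete inhibition of growth.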

Tests used:
Assay in all cases: NCI tumour cell line growth inhibition, 48 h
DU-145 prostate = test system: DU-145 prostate
BT-549 breast = test system: BT-549 breast
MDA-MB-231 breast = test system: MDA-MB-231 breast
U251 CNS = test system: U251 CNS
SF-295 CNS = test system: SF-295 CNS
RXF 393 renal = test system: RXF 393 renal
EKVX NSCLC = test system: EKVX NSCLC
NCI-H460 lung = test system: NCI-H460 lung

Compound | TGI (DU-145 prostate) [µM] | TGI (BT-549 breast) [µM] | TGI (MDA-MB-231 breast) [µM] | TGI (U251 CNS) [µM] | TGI (SF-295 CNS) | TGI (RXF 393 renal) | TGI (EKVX NSCLC) [µM] | TGI (NCI-H460 lung) | GI50 (DU-145 prostate) [µM] | GI50 (RXF 393 renal) [µM] | GI50 (EKVX NSCLC) | GI50 (NCI-H460 lung) [µM] | GI50 (BT-549 breast) | GI50 (MDA-MB-231 breast) | GI50 (U251 CNS) | GI50 (SF-295 CNS)
COc1cc(C(=O)O)c(-c2cc3c(cc2C=O)OCO3)c(OC)c1OC | > 10 | > 10 | > 10 | > 10 | > 10 µM | – | – | – | – | – | – | – | – | – | – | –
O=C1C=C(C2=C(C3=CC(=O)c4ccccc4C3=O)C(=O)c3ccccc3C2=O)C(=O)c2ccccc21 | 16.5 | 28.9 | 13.8 | 18.1 | 34 µM | 14.5 µM | 33.8 | 39.6 µM | – | – | – | – | – | – | – | –
CNC(=O)CCCNC(=O)CCCC(=O)OC | > 100 | > 100 | > 100 | > 100 | > 100 µM | – | > 100 | > 100 µM | – | – | – | – | – | – | – | –
O=S(=O)(O)c1ccc2cc(N=Nc3c(O)ccc4ccccc34)ccc2c1 | > 100 | > 100 | – | > 100 | > 100 µM | > 100 µM | > 100 | > 100 µM | – | – | – | – | – | – | – | –
CNC(=O)N1N[C@H](c2ccccc2)[C@@H]1c1ccccc1 | – | 40.9 | > 100 | 43 | 41.2 µM | 36.6 µM | 85.6 | 53.4 µM | – | – | – | – | – | – | – | –
O=c1[nH]c2nc[nH]c2c(=O)n1C1CCCCC1 | > 100 | > 100 | > 100 | > 100 | > 100 µM | > 100 µM | > 100 | > 100 µM | – | – | – | – | – | – | – | –
O=C(O)CC12CC3CC(CC(O)(C3)C1)C2 | > 100 | > 100 | > 100 | > 100 | > 100 µM | > 100 µM | > 100 | > 100 µM | – | – | – | – | – | – | – | –
Cc1nc(N(C(C)C)C(C)C)c(C(C)C)o1 | > 100 | > 100 | > 100 | > 100 | > 100 µM | > 100 µM | > 100 | > 100 µM | – | – | – | – | – | – | – | –
c1cc(CN2CCNCCNCCNCC2)cc(CN2CCNCCNCCNCC2)c1 | > 100 | > 100 | > 100 | > 100 | > 100 µM | – | > 100 | > 100 µM | – | – | – | – | – | – | – | –
O=C(O)CCCc1ccccc1 | > 1000 | > 1000 | > 1000 | > 1000 | 738 µM and > 1000 µM | 604 µM and > 1000 µM | > 1000 | 295 µM and > 1000 µM | > 1000 | > 1000 | 294 µM and > 1000 µM | > 1000 | 242 µM and > 1000 µM | 338 µM and > 1000 µM | 292 µM and > 1000 µM | 370 µM and > 1000 µM
O=C1CSC(c2ccccc2O)N1c1ccc(Oc2ccc(Cl)cc2)c(Cl)c1 (configuration not stated) | 59.8 | 34.9 | 34.3 | 39.5 | 34.5 µM | – | 45.9 | 43.6 µM | – | – | – | – | – | – | – | –
O=C1/C(=C/c2cccs2)NC(=S)N1CN1CCCCC1 | > 100 | – | > 100 | > 100 | > 100 µM | – | > 100 | – | – | – | – | – | – | – | – | –
COc1ccc(C(=O)Oc2c(C#N)sc3c2c(=O)n(-c2ccccc2)c(=S)n3-c2ccccc2)cc1 | > 100 | – | > 100 | > 100 | > 100 µM | 53.7 µM | 31.3 | > 100 µM | – | – | – | – | – | – | – | –
OC1COC(OCc2ccccc2)C(O)C1O (configuration not stated) | > 100 | > 100 | > 100 | > 100 | > 100 µM | > 100 µM | > 100 | > 100 µM | – | – | – | – | – | – | – | –
N#Cc1c(-c2ccccc2)cc(-c2ccccc2)n(C2OCC(O)C(O)C2O)c1=S (configuration not stated) | 49.3 | 44 | 23.9 | 30.4 | 39 µM | 35.6 µM | 90.2 | 70.6 µM | – | – | – | – | – | – | – | –
c1ccc(COC2C3COC(O3)C(OCc3ccccc3)C2OCc2ccccc2)cc1 (configuration not stated) | > 100 | > 100 | > 100 | > 100 | > 100 µM | > 100 µM | > 100 | > 100 µM | – | – | – | – | – | – | – | –
CCCCCCCCCCCCC(O)C(=O)O (configuration not stated) | > 100 | > 100 | > 100 | > 100 | > 100 µM | – | – | > 100 µM | – | – | – | – | – | – | – | –
CCC(C)N1CN(c2ccccc2)C2(CCN(CCCSc3ccc(F)cc3)CC2)C1=O (configuration not stated) | 10.1 | 6.99 | 1.1 | 13.7 | 5.57 µM | – | 10.4 | – | – | – | – | – | – | – | – | –
C[C@@]1(OC(=O)c2cc([N+](=O)[O-])cc([N+](=O)[O-])c2)C[C@@H]2CCCC[C@@H]21 | > 100 | > 100 | > 100 | > 100 | > 100 µM | – | > 100 | > 100 µM | – | – | – | – | – | – | – | –
CSc1c(C#N)c(S)n(-c2ccc(Cl)cc2)c(=O)c1C#N | > 100 | > 100 | > 100 | > 100 | – | > 100 µM | > 100 | > 100 µM | – | – | – | – | – | – | – | –
C[C@H](NC(=O)CNC(=O)CCCCCC(=O)NCC(=O)N[C@@H](C)C(=O)OCc1ccccc1)C(=O)OCc1ccccc1 | > 100 | > 100 | > 100 | > 100 | > 100 µM | > 100 µM | > 100 | – | – | – | – | – | – | – | – | –
NC(=O)c1sc2nc3ccccc3n2c1N | > 100 | 76.8 | > 100 | 87.4 | 50.8 µM | 74.8 µM | > 100 | – | – | – | – | – | – | – | – | –
Nc1[nH]c(=O)[nH]c(=O)c1Cc1cccc(Cl)c1 | – | > 100 | > 100 | > 100 | > 100 µM | > 100 µM | > 100 | > 100 µM | – | – | – | – | – | – | – | –
CCOC(=O)/C=C/C1(CCOC(C)=O)CCCCC1 | > 10 | – | > 10 | > 10 | > 10 µM | > 10 µM | > 10 | > 10 µM | – | – | – | – | – | – | – | –
CSc1nc2c3ccccc3ccn2c1C(=O)N/N=C/c1ccccc1 | > 100 | – | 40.8 | 37.7 | > 72.4 µM | > 79.4 µM | > 100 | > 73.7 µM | – | – | – | – | – | – | – | –
Cc1ccc(/N=N/C(=NNC(=O)c2ccc(C)cc2)c2ccc(N(C)C)cc2)cc1 | 73.9 | 62.4 | > 100 | > 100 | 76.1 µM | – | > 100 | 80.3 µM | – | – | – | – | – | – | – | –
